Laboratory results as given in patent US20190023658A1, “SUBSTITUTED 2-DIFLUOROMETHYL-NICOTIN(THIO)CARBOXANILIDE DERIVATIVES AND THEIR USE AS FUNGICIDES” (Bayer CropScience Aktiengesellschaft, priority 2015, published 2019).
Each block holds one molecule with its values, some of them ahead of it.

Experiment: Log P by HPLC on reversed phase columns (EEC directive 79/831 Annex V.A8)
Format: physicochemical
Experimental: Measurement of Log P values was performed according to EEC directive 79/831 Annex V.A8 by HPLC (High Performance Liquid Chromatography) on reversed phase columns with the following methods: [a] Log P value is determined by measurement of LC-UV, in an acidic range, with 0.1% formic acid in water and acetonitrile as eluent (linear gradient from 10% acetonitrile to 95% acetonitrile). [b] Log P value is determined by measurement of LC-UV, in a neutral range, with 0.001 molar ammonium acetate solution in water and acetonitrile as eluent (linear gradient from 10% acetonitrile to 95% acetonitrile). Calibration was done with straight-chain alkan2-ones (with 3 to 16 carbon atoms) with known Log P values (measurement of Log P values using retention times with linear interpolation between successive alkanones). Lambda-max-values were determined using UV-spectra from 200 nm to 400 nm and the peak values of the chromatographic signals.

[1] = [a] LC-UV, acidic range, 0.1% formic acid in water and acetonitrile as eluent
[2] = [b] LC-UV, neutral range, 0.001 molar ammonium acetate solution in water and acetonitrile as eluent

Compound: Cc1ccccc1Oc1ccccc1NC(=O)c1cccnc1C(F)F [Example I-02]
- LogP [1]: 3.27^[a]

Compound: O=C(Nc1ccccc1Oc1cc(F)cc(C(F)(F)F)c1)c1cccnc1C(F)F [Example I-04]
- LogP [1]: 3.57^[a]

Compound: COc1cccc(Oc2ccccc2NC(=O)c2cccnc2C(F)F)c1 [Example I-05]
- LogP [1]: 2.92^[a]

Compound: O=C(Nc1ccccc1Sc1ccccc1)c1cccnc1C(F)F [Example I-11]
- LogP [1]: 3.21^[a]

Compound: O=C(Nc1ccccc1Oc1cc(F)cc(F)c1)c1cccnc1C(F)F [Example I-12]
- LogP [1]: 3.11^[a]

Compound: O=C(Nc1ccccc1Oc1ccccc1F)c1cccnc1C(F)F [Example I-15]
- LogP [1]: 2.88^[a]

Compound: O=C(Nc1ccccc1Oc1cccc(C(F)(F)F)c1)c1cccnc1C(F)F [Example I-18]
- LogP [1]: 3.44^[a]

Compound: O=C(Nc1ccccc1Oc1ccccc1)c1cccnc1C(F)F [Example I-20]
- LogP [1]: 2.90^[a]

Compound: COc1ccccc1Oc1ccccc1NC(=O)c1cccnc1C(F)F [Example I-21]
- LogP [1]: 2.88^[a]

Compound: O=C(Nc1ccccc1S(=O)(=O)c1ccccc1)c1cccnc1C(F)F [Example I-23]
- LogP [1]: 2.56^[a]

Compound: O=C(Nc1cc(C(F)(F)F)ccc1Oc1ccccc1)c1cccnc1C(F)F [Example I-24]
- LogP [1]: 3.63^[a]

Compound: CON=Cc1ccc(-c2ccccc2NC(=O)c2cccnc2C(F)F)cc1 [Example I-32]
- LogP [1]: 2.86^[a]

Compound: CON=Cc1c(F)cc(-c2cccc(F)c2NC(=O)c2cccnc2C(F)F)cc1F [Example I-33]
- LogP [1]: 2.97^[a]

Compound: O=C(Nc1ccccc1-c1ccc(F)cc1)c1cccnc1C(F)F [Example I-34]
- LogP [1]: 2.66^[a]

Compound: N#Cc1c(F)cc(-c2ccccc2NC(=O)c2cccnc2C(F)F)cc1F [Example I-36]
- LogP [1]: 2.71^[a]

Compound: O=C(Nc1ccc(F)cc1-c1ccc(Cl)c(Cl)c1)c1cccnc1C(F)F [Example I-37]
- LogP [1]: 3.44^[a]

Compound: O=C(Nc1ccccc1-c1cc(F)cc(F)c1)c1cccnc1C(F)F [Example I-38]
- LogP [1]: 2.80^[a]

Compound: O=C(Nc1ccccc1-c1cccc(C(F)(F)F)c1)c1cccnc1C(F)F [Example I-39]
- LogP [1]: 3.15^[a]

Compound: CCON=Cc1ccc(-c2ccccc2NC(=O)c2cccnc2C(F)F)cc1 [Example I-41]
- LogP [1]: 3.23^[a]

Compound: O=C(Nc1ccccc1-c1ccc(C(F)(F)F)c(F)c1)c1cccnc1C(F)F [Example I-43]
- LogP [1]: 3.25^[a]

Compound: O=C(Nc1ccccc1-c1ccccc1C(F)(F)F)c1cccnc1C(F)F [Example I-44]
- LogP [1]: 2.99
- LogP [2]: 2.93

Compound: O=C(Nc1ccccc1-c1ccc(F)cc1F)c1cccnc1C(F)F [Example I-45]
- LogP [1]: 2.66^[a]

Compound: O=C(Nc1ccc(F)cc1-c1ccc(F)cc1)c1cccnc1C(F)F [Example I-47]
- LogP [1]: 2.73^[a]

Compound: O=C(Nc1ccccc1-c1cc(F)c(F)c(F)c1)c1cccnc1C(F)F [Example I-48]
- LogP [1]: 2.92^[a]

Compound: CON=Cc1c(F)cc(-c2ccccc2NC(=O)c2cccnc2C(F)F)cc1F [Example I-49]
- LogP [1]: 3.17^[a]

Compound: CCON=Cc1c(F)cc(-c2ccccc2NC(=O)c2cccnc2C(F)F)cc1F [Example I-50]
- LogP [1]: 3.46^[a]

Compound: COC(=N)c1c(F)cc(-c2cc(F)ccc2NC(=O)c2cccnc2C(F)F)cc1F [Example I-55]
- LogP [1]: 3.16^[a]

Compound: CSc1ccc(-c2ccccc2NC(=O)c2cccnc2C(F)F)cc1 [Example I-56]
- LogP [1]: 2.94^[a]

Compound: CCOc1c(F)cc(-c2ccccc2NC(=O)c2cccnc2C(F)F)cc1F [Example I-57]
- LogP [1]: 3.29^[a]

Compound: CCCOc1c(F)cc(-c2ccccc2NC(=O)c2cccnc2C(F)F)cc1F [Example I-58]
- LogP [1]: 3.61^[a]

Compound: CCCCOc1c(F)cc(-c2ccccc2NC(=O)c2cccnc2C(F)F)cc1F [Example I-59]
- LogP [1]: 3.99^[a]

Compound: CCON=Cc1c(F)cc(-c2cccc(F)c2NC(=O)c2cccnc2C(F)F)cc1F [Example I-60]
- LogP [1]: 3.35^[a]

Compound: O=C(Nc1ccccc1-c1ccccc1)c1cccnc1C(F)F [Example I-61]
- LogP [1]: 2.55^[a]

Compound: CC(C)(C)C#Cc1ccc(-c2ccccc2NC(=O)c2cccnc2C(F)F)cc1 [Example I-62]
- LogP [1]: 4.29^[a]

Compound: O=C(Nc1ccccc1-c1ccc(C(F)(F)F)c(Cl)c1)c1cccnc1C(F)F [Example I-63]
- LogP [1]: 3.50^[a]

Compound: CCON=Cc1c(F)cc(-c2cc(F)ccc2NC(=O)c2cccnc2C(F)F)cc1F [Example I-65]
- LogP [1]: 3.55^[a]

The next lines start with the values.

- chromatographic logP (reversed phase HPLC column, [a] LC-UV, acidic range, 0.1% formic acid in water and acetonitrile as eluent): 3.27
Compound: Cc1ccc(Oc2ccccc2NC(=O)c2cccnc2C(F)F)cc1 [Example I-01, 2-(difluoromethyl)-N-[2-(4-methylphenoxy)phenyl]nicotinamide]

- LogP [1]: 3.33^[a]
Compound: O=C(Nc1ccccc1Oc1ccc(Cl)cc1)c1cccnc1C(F)F [Example I-03]

- LogP [1]: 3.46^[a]
Compound: O=C(Nc1ccccc1Oc1ccc(C(F)(F)F)cc1)c1cccnc1C(F)F [Example I-07]

- LogP [1]: 2.98^[a]
Compound: O=C(Nc1ccccc1Oc1cccc(F)c1F)c1cccnc1C(F)F [Example I-08]

- LogP [1]: 3.59^[a]
Compound: O=C(Nc1cccc(Cl)c1Sc1ccccc1)c1cccnc1C(F)F [Example I-09]

- LogP [1]: 3.59^[a]
Compound: O=C(Nc1cccc(Cl)c1Oc1ccc(Cl)cc1)c1cccnc1C(F)F [Example I-10]

- LogP [1]: 2.90^[a]
Compound: COc1ccc(Oc2ccccc2NC(=O)c2cccnc2C(F)F)cc1 [Example I-13]

- LogP [1]: 3.57^[a]
Compound: O=C(Nc1ccccc1Sc1ccc(Cl)cc1)c1cccnc1C(F)F [Example I-14]

- LogP [1]: 3.09^[a]
Compound: O=C(Nc1ccccc1Oc1ccc(F)c(F)c1)c1cccnc1C(F)F [Example I-16]

- LogP [1]: 3.65^[a]
Compound: O=C(Nc1ccccc1Oc1ccc(Cl)cc1Cl)c1cccnc1C(F)F [Example I-17]

- LogP [1]: 3.23^[a]
Compound: Cc1cccc(Oc2ccccc2NC(=O)c2cccnc2C(F)F)c1 [Example I-19]

- LogP [1]: 3.15^[a]
Compound: O=C(Nc1cccc(Cl)c1Oc1ccccc1)c1cccnc1C(F)F [Example I-22]

- LogP [1]: 3.81^[a]
Compound: O=C(Nc1ccccc1Oc1cc(Cl)cc(Cl)c1)c1cccnc1C(F)F [Example I-25]

- LogP [1]: 3.11^[a]
Compound: O=C(Nc1ccccc1Oc1ccccc1Cl)c1cccnc1C(F)F [Example I-26]

- LogP [1]: 2.96^[a]
Compound: O=C(Nc1ccccc1Oc1cccc(F)c1)c1cccnc1C(F)F [Example I-27]

- LogP [1]: 2.96^[a]
Compound: O=C(Nc1ccccc1Oc1ccc(F)cc1)c1cccnc1C(F)F [Example I-28]

- LogP [1]: 2.51^[a]
Compound: N#Cc1ccc(Oc2ccccc2NC(=O)c2cccnc2C(F)F)cc1 [Example I-29]

- LogP [1]: 3.39^[a]
Compound: O=C(Nc1ccccc1Oc1ccc(Br)cc1)c1cccnc1C(F)F [Example I-30]

- LogP [1]: 3.06^[a]
Compound: O=C(Nc1ccccc1-c1ccc(Cl)c(F)c1)c1cccnc1C(F)F [Example I-35]

- LogP [1]: 2.92^[a]
Compound: O=C(Nc1ccccc1-c1ccc(Cl)cc1)c1cccnc1C(F)F [Example I-40]

- LogP [1]: 2.78^[a]
Compound: O=C(Nc1ccccc1-c1ccc(F)c(F)c1)c1cccnc1C(F)F [Example I-42]

- LogP [1]: 2.74
- LogP [2]: 2.68
Compound: O=C(Nc1ccccc1-c1ccccc1Cl)c1cccnc1C(F)F [Example I-51]

- LogP [1]: 2.96^[a]
Compound: O=C(Nc1ccccc1-c1cccc(Cl)c1)c1cccnc1C(F)F [Example I-52]

- LogP [1]: 3.48^[a]
Compound: O=C(Nc1ccccc1-c1cc(Cl)cc(Cl)c1)c1cccnc1C(F)F [Example I-53]

- LogP [1]: 3.35^[a]
Compound: O=C(Nc1ccccc1-c1ccc(Cl)c(Cl)c1)c1cccnc1C(F)F [Example I-54]
